From patent US12599136B2, “Substituted isophthalic acid diamides and their use as herbicides” (Bayer Aktiengesellschaft, priority 2020, dated 2026) come the findings set out here.

What all share (assay type): in vivo
Test [1] deals with Abutilon theophrasti. The test is described as follows: Pre-emergence herbicidal action against ABUTH. The conditions noted are these: 80 g/ha; visual score after 3 weeks vs untreated controls. Put shortly: (§1)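 Greenhouse pots of sandy loam held seeds covered with soil, onto which the compound was applied before emergence. An aqueous suspension or emulsion of WP or EC was used at 600 to 800 l/ha with 0.2% wetting agent. Percent damage was judged visually at 3 weeks.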

A further test relates to Alopecurus myosuroides. The experiment in a line: Pre-emergence herbicidal action against ALOMY. The conditions noted are these: 80 g/ha; visual score after 3 weeks vs untreated controls. Put shortly:
as §1

Test [2] deals with Amaranthus retroflexus. The experiment in a line: Pre-emergence herbicidal action against AMARE. The conditions noted are these: visual score after 3 weeks vs untreated controls. Put shortly: as §1
In test [3] the test system is Matricaria inodora. The test is described as follows: Pre-emergence herbicidal action against MATIN. The conditions noted are these: 80 g/ha; visual score after 3 weeks vs untreated controls. Put shortly:
as §1

Test [4] relates to Digitaria sanguinalis. The test is described as follows: Pre-emergence herbicidal action against DIGSA. The conditions noted are these: 80 g/ha. Put shortly: as §1
Test [5] deals with Setaria viridis. The test is described as follows: Pre-emergence herbicidal action against SETVI. The conditions noted are these: 80 g/ha. Put shortly: as §1
For another test, the system named is Veronica persica. The test is described as follows: Pre-emergence herbicidal action against VERPE. The conditions noted are these: 80 g/ha. Put shortly: as §1
The test system of test [6] is Viola tricolor. The test is described as follows: Pre-emergence herbicidal action against VIOTR. The conditions noted are these: 80 g/ha. Put shortly: as §1
The subject of test [7] is Abutilon theophrasti. The test is described as follows: Post-emergence herbicidal action against ABUTH. Put shortly: (§2)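 Foliar application at one-leaf stage of formulated test compounds, aqueous spray at 600–800 l/ha with 0.2% wetting agent. Greenhouse, optimal conditions, ~3 weeks; damage scored visually in % relative to untreated plants.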
The subject of the next test is Pharbitis purpurea. The test is described as follows: Post-emergence herbicidal action against PHBPU. The conditions noted are these: 20 g/ha, visual assessment about 3 weeks after treatment. Put shortly: as §2
Test [8] concerns Digitaria sanguinalis. The experiment in a line: Post-emergence herbicidal action against DIGSA. The conditions noted are these: 20 g/ha. The procedure: Seeds of monocotyledonous and dicotyledonous weed and crop plants are laid out in sandy loam soil in wood-fiber pots, covered with soil and cultivated in a greenhouse under good growth conditions. 2 to 3 weeks after sowing, the test plants are treated at the one-leaf stage. The compounds of the invention, formulated in the form of wettable powders (WP) or as emulsion concentrates (EC), are then sprayed onto the green parts of the plants in the form of an aqueous suspension or emulsion at a water application rate equivalent to 600 to 800 l/ha, with addition of 0.2% wetting agent. After the test plants have been left to stand in the greenhouse under optimal growth conditions for about 3 weeks, the action of the preparations is assessed visually in comparison to untreated controls (herbicidal action in percent (%): 100% activity=the plants have died, 0% activity=like control plants). […] The tables below illustrate, in an illustrative manner, the post-emergence herbicidal action of the compounds of the invention, the herbicidal activity being stated in percent.

Test [9] has as its system Setaria viridis. The experiment in a line: Post-emergence herbicidal action against SETVI. The conditions noted are these: 20 g/ha, visual assessment about 3 weeks after treatment. Put shortly: as §2
The test system of test [10] is Viola tricolor. The test is described as follows: Post-emergence herbicidal action against VIOTR. The conditions noted are these: 20 g/ha. Put shortly: as §2
The next test concerns Echinochloa crus-galli. The test is described as follows: Pre-emergence herbicidal action against ECHCG. The conditions noted are these: 80 g/ha; visual score after 3 weeks vs untreated controls. Put shortly: as §1
For test [11], the system named is Amaranthus retroflexus. The experiment in a line: Post-emergence herbicidal action against AMARE. The conditions noted are these: visual assessment about 3 weeks after treatment. Put shortly: as §2
Test [12] concerns Matricaria inodora. The test is described as follows: Post-emergence herbicidal action against MATIN. The conditions noted are these: 20 g/ha, visual assessment about 3 weeks after treatment. Put shortly:
as §2

Turning to `CCN(C)C(=O)c1c(C(F)(F)F)ccc(C(=O)Nc2nnnn2C)c1C` [Example 1-20, N^3-ethyl-N^3-2-dimethyl-N^1-(1-methyl-1H-tetrazol-5-yl)-4-(trifluoromethyl)isophthalamide], the “Pre-emergence action against ABUTH” value in the test on Abutilon theophrasti [1] is on record as 100%. Further, in the test with Alopecurus myosuroides, the “Pre-emergence action against ALOMY” value is reported as 90%. In addition, the “Pre-emergence action against AMARE” value is 80% in the test on Amaranthus retroflexus [2] (20 g/ha) and 90% with Amaranthus retroflexus [2] (80 g/ha). In addition, in the test with Matricaria inodora [3], the “Pre-emergence action against MATIN” value turned out to be 100%. Besides, the “Pre-emergence action against DIGSA” value in the test on Digitaria sanguinalis [4] is listed as 90%. Also, the “Pre-emergence action against SETVI” value in the test with Setaria viridis [5] came to 100%. Besides, the “Pre-emergence action against VERPE” value in the test with Veronica persica was 80%. Moreover, in the test on Viola tricolor [6], the “Pre-emergence action against VIOTR” value is recorded as 100%. Besides, the “Post-emergence action against ABUTH” value came to 80% with Abutilon theophrasti [7] (5 g/ha) and 90% with Abutilon theophrasti [7] (20 g/ha). The “Post-emergence action against PHBPU in %” value in the test with Pharbitis purpurea came out at 90%. Also, the “Post-emergence action against DIGSA in %” value in the test on Digitaria sanguinalis [8] is listed as 80%. In the test on Setaria viridis [9], the “Post-emergence action against SETVI in %” value is reported as 80%. For the same compound, the “Post-emergence action against VIOTR in %” value in the test on Viola tricolor [10] is given as 90%.

On to `Cc1c(C(=O)Nc2nnnn2C)ccc(C(F)(F)F)c1C(=O)N(C1CC1)C1CC1` [Example 1-40], for which the “Pre-emergence action against ABUTH” value in the test with Abutilon theophrasti [1] was found to be 80%. Besides, the “Pre-emergence action against AMARE” value with Amaranthus retroflexus [2] (20 g/ha) and in the test on Amaranthus retroflexus [2] (80 g/ha) was 100% throughout. For the same compound, the “Pre-emergence action against ECHCG” value in the test with Echinochloa crus-galli was 80%. Also, in the test on Matricaria inodora [3], the “Pre-emergence action against MATIN” value came out at 90%. Besides, the “Pre-emergence action against DIGSA” value in the test with Digitaria sanguinalis [4] was determined as 100%. Moreover, the “Pre-emergence action against VIOTR” value in the test on Viola tricolor [6] is reported as 100%. Moreover, the “Post-emergence action against AMARE in %” value with Amaranthus retroflexus [11] (5 g/ha) and with Amaranthus retroflexus [11] (20 g/ha) was 80% each time. In addition, the “Post-emergence action against MATIN in %” value with Matricaria inodora [12] came to 80%. Further, the “Post-emergence action against DIGSA in %” value with Digitaria sanguinalis [8] is given as 90%.
